Measurements from article PMC10321640, “The VIPR2-selective antagonist KS-133 changes macrophage polarization and exerts potent anti-tumor effects as a single agent and in combination with an anti-PD-1 antibody” (PLOS ONE, 2023).
Where a SMILES comes first, the peptide text is derived from it. Bridges are numbered along the chain shown (N, C = ends).

Experiments:
[1] = In vivo pharmacokinetic study, plasma LC-MS/MS; conditions: mouse, iv, 1 nmol/g body weight, male ICR mice, mean ± SD
From the text: These animal experiments were approved by the Animal Care and Use Committee of Osaka University (approval No. Douyaku 30-3-2) and conducted at Osaka University in accordance with the aforementioned guidelines. LC–MS/MS data were obtained using an LCMS-8060NX MS system (Shimadzu Corp., Kyoto, Japan) connected to a Nexera X3 UHPLC system (Shimadzu) equipped with a Peptide BEH C18 column (1.7 μm, 2.1 × 50 mm, Waters Corp., Milford, MA, USA). Mobile phase A was 0.1% formic acid in water, and mobile phase B was acetonitrile. The elution profile of mobile phase B was 5% isocratic between 0 to 1 min, linear gradient from 5% to 50% between 1 to 1.5 min, and increase from 50% to 75% between 1.5 to 3 min. The flow rate was 0.2 mL/min. For pharmacokinetic studies, free or nanoformulated KS-133 was administered intravenously or subcutaneously to male ICR mice at 1 nmol/g body weight. Serial blood samples were collected from the tail vein using heparinized capillary tubes at the indicated times after administration. The plasma (5 μL) obtained from each blood sample was mixed with 10 μL of 0.1% formic acid in 50% (v/v) acetonitrile/water, and subsequently, 50 μL of acetonitrile was added. After centrifugation, aliquots (50 μL) of the supernatant were mixed with equal volumes of 0.2% formic acid in water and then injected into the LC–MS/MS system. Pharmacokinetic parameters were obtained from the plasma concentration–time data by non-compartmental analysis using Phoenix WinNonlin Software (Certara Companies, NJ, USA).
Fig 4 Pharmacokinetic study of KS-133 and KS-133 NPs in mice. Concentration of peptides in plasma at indicated time points after administration of peptide with or without nanoformulation are presented. (A) Intravenous administration of KS-133 (n = 3, 1 nmol/g, mean ± SD). (B) Subcutaneous administration of KS-133 and KS-133 NPs (n = 5, 1 nmol/g, mean ± SD). (C) Blood samples were collected at the indicated times. The concentration of KS-133 in plasma was determined by LC–MS/MS (mean ± SD, *p < 0.05 by Student’s t-test). The pharmacokinetic parameters Cmax (μM), tmax (h), t1/2 (h), AUC0-t (μmol·h/L), AUC0-inf,pred (μmol·h/L), and MRTinf,pred (h) were calculated as described in the “Materials and methods” section. […]

[2] = cited from earlier work
From the text: Vasoactive intestinal peptide receptor 2 (VIPR2) is a class-B G protein-coupler receptor that participates in various physiological function by interacting with its ligand vasoactive intestinal peptide (VIP). VIP–VIPR2 signaling has attracted attention as a drug target in the fields of central nervous system diseases, oncology, and immunity. In 2021, we generated 13-mer bicyclic peptide KS-133 as a potent and selective antagonist to VIPR2 [1]. […] Generally, peptides are rapidly degraded by proteases, and even if they are resistant to degradation, they are prematurely excreted from the body via renal filtration. Thus, frequent dosing is needed, reducing patients’ quality of life. KS-133 is stable in plasma for at least 24 h. Unfortunately, daily dosing is required for the anti-tumor effects of KS-133 in vivo. A versatile method for improving the pharmacokinetics of peptides is conjugation with polyethylene glycol, but this req ...

AUC(0-inf) ([1]; i.v., n = 3, read-out: AUC0-inf, pred): 10.1 ± 1.73 µM·h
MRT ([1]; i.v., n = 3, read-out: MRTinf, pred): 58.8 ± 6.6 min
half-life ([1]; i.v., non-compartmental, n = 3, read-out: t1/2 (elimination half-life from plasma) (converted)): 40.8 min
AUC(0-t) ([1]; n = 3): 7.51 ± 1.77 µM·h
SMILES: CC[C@H](C)[C@H](NC(=O)[C@H](CC(C)C)NC(=O)[C@@H]1CC(=O)NCCCC[C@@H]2NC(=O)[C@@H]3CCCN3C(=O)[C@H](CC(C)C)NC(=O)[C@H](Cc3ccc(O)cc3)NC(=O)[C@@H]3CCCN3C(=O)[C@@H]3CCCN3C(=O)[C@@H](NC(C)=O)CSSC[C@H](NC(=O)[C@H](CC(C)C)NC(=O)[C@H](Cc3ccc(O)cc3)NC2=O)C(=O)N1)C(N)=O [KS-133] (Ac-CPPYLPKYLCDLI-NH2; disulfide 1-10; lactam 7-11)
protease degradation [2]: resistant to protease degradation
time stable in plasma ([2]; plasma): at least 24 h
